In patent US11389537B2, “Drug delivery system for sustained delivery of bioactive agents” (UPM-Kymmene Corporation, priority 2011, dated 2022):
In brackets after ≈: the same amount, converted by molar mass. Where a name gives a salt, the structure may show the parent alone. Read-outs that look alike come from different tables or passages of the source. Values belong to the compound of their own block, whether it stands above or below them.

Experiments:
[1] = cited from earlier work
[2] = Contact angle between matrix surface and water drop; conditions: water drop on matrix surface or pure drug
[3] = Stability in water solution of tested drugs; assay type: physicochemical
Text: (§1) NFC has strong affinity to water, which makes drying it difficult. The residence time in the spray-drying chamber is short and therefore high temperature needs to be used in drying. If lower temperature and/or higher feeding rates were to be used, the wet material would adhere to the chamber. The application of high temperature when spray drying the aqueous suspension of NFC containing an API, increases the risk of degradation of the API during the drying process. High temperature is also a limitation for the choice of the API if its melting point is low (Table 11, showing the values of melting point (Tm), water solubility and stability in water solution of tested drugs). Generally, particles reach a maximum temperature during spraying, which is 15-20° C. below the outlet temperature of a co-current dryer.

[4] = Solubility in water of tested drugs; assay type: physicochemical; conditions: value obtained from testing
Text: as §1, with “dryer. During the particle production outlet temperatures were in the range of 120-127° C., which was sufficient for successful drying.” for “dryer.”

Compound: CC(C)Cc1ccc(C(C)C(=O)O)cc1 (stereo not shown) [Ibuprofen, ibuprofen]
Solubility (50 mM NH4OH) ([1]; 50 mM NH4OH): 6 mg/mL (≈ 29.1 mM)

Contact angle [2]: 76.7
Stability in water solution (21° C.) ([3]; pH 7.4, obtained from testing): *pH 7.4 up to 4 days
Compound: COc1ccc2c(c1)c(CC(=O)O)c(C)n2C(=O)c1ccc(Cl)cc1 [Indomethacin, indomethacin]
Solubility in water [1]: <0.001 mg/mL
Solubility in water (words) [1]: ↑ with ↑ pH
Solubility in water ([1]; line below '↑ with ↑ pH'): <1 mg/mL

Stability in water solution (21° C.) ([3]; obtained from testing): *up to 60 days
Compound: COCCc1ccc(OCC(O)CNC(C)C)cc1 (stereo not shown) [Metoprolol tartrate, metoprolol tartrate]
Solubility in water (words) [1]: freely

solubility [4]: 6.77 mg/mL (≈ 21.9 mM)
Stability in water solution (21° C.) ([3]; obtained from testing): *up to 30 days
Compound: CC(C)(C)NCC(O)COc1cccc2c1CC(O)C(O)C2 (stereo not shown) [Nadolol, nadolol]
